How the values were obtained:
[1] = Biodistribution of Cy5.5-labeled SdPN in xenografted mice (fluorescence, IVIS)
Method: In order to verify the tumor specificity of the SdPN according to the present invention, an analysis was performed using a cancer animal model (xenograft) in which human cancer cells were cultured in immunodeficient mice. Specifically, a mixture of 50 mL of Matrigel (Corning, NY, USA) and HCT116 cells (5× 10^6 cells in 50 mL of saline) was subcutaneously injected into the hind legs of 5-week-old nu/nu male nude mice (nu/nu athymic). The tumor volume was analyzed using a caliper [tumor volume=(major axis)×(minor axis)^2/2]. […] At this time, the dose was 100 μl of saline injected at a concentration of 400 μM based on Cy5.5 (40 nmol/100 μl saline).
Fluorescence images were obtained at various times after the intravenous injection.
The isolated cancer tissues were treated with 4% paraformaldehyde, and their moisture content was assessed with sucrose.

[2] = system: HCT116 cells; assay: In vivo anticancer effect in HCT116 xenografted mice; conditions: 76.9 nmol/100 μl saline i.v., once every two days, five times; 14 days
Method: Body weight and tumor volume of each group were measured every 0, 2, 4, 6, 8, 10, 12, and 14 days.

[3] = system: HCT116 p53+/+ cells; assay: WST-8 cell viability assay in HCT116 p53+/+ cells; format: cell-based, human; conditions: 0, 5, 10, 15, 20 μM, 12 to 24 hours
Method: First, HCT116 p53^+/+ cells were cultured in a thermos-hygrostat incubator at 37° C., 5% CO2 in DMEM containing 10% FBS and 1% Pen-Step.
For a WST-8 cell viability assay, the HCT116 p53+/+ cells were seeded at a density of 2×10^4 cells/well in […] culture medium in a 96-well plate and cultured for 24 hours. […] After culturing at 37° C. for 12 to 24 hours, WST-8 reagent (Abcam Inc., UK) was added to each well, and culture was performed for 30 minutes. The absorbance at […] was measured using a microplate reader (PerkinElmer Inc., USA).

[4] = system: p53; assay: Immunoblotting kinetic analysis of MDM2 and p53; format: cell-based, human; conditions: 10 μM; HCT116 p53+/+ cells
Method: The cells were harvested, washed with cold PBS, and lysed with a radio-immunoprecipitation assay (RIPA) buffer. The cell lysate was centrifuged at 4° C. and 13,000 rpm for 20 minutes, and the supernatant was collected. The protein amount of the lysate was quantified using a bicinchoninic acid (BCA) protein assay kit (Pierce Inc., USA). The supernatant of the cell lysate was loaded on 10% sodium dodecyl sulfate-polyacrylamide gel electrophoresis (SDS-PAGE) to separate proteins, which were transferred to a polyvinylidene fluoride (PVDF) membrane, and the membrane was treated with 5% skim milk in tris-buffered saline with Tween® 20 (TBS-T) buffer (room temperature), and after one hour, washed with TBS-T buffer (2×) for one minute. After treatment with primary antibodies (specific primary antibodies) (p53, MDM2, or vinculin), the membrane was incubated overnight at 4° C. The membrane was washed with TBS-T for 10 minutes (5×), treated with horseradish peroxidase (HRP)-conjugated secondary antibodies (room temperature, 1 h), and then washed with TBS-T for 10 minutes (5×) and analyzed using a LAS 3000 luminescent image analyzer (Fujifilm Co., LTD., Japan).

[5] = 24 hours after i.v. administration, Cy5.5-labeled

removal over time (IVIS) ([1]; 40 nmol/100 μl saline i.v.)	accumulation in cancer tissues (frozen sections) [1, 5]	Compound	localization to the cancer area (IVIS) ([1]; 40 nmol/100 μl saline i.v.)	accumulation in major organs and cancer tissues (ex vivo fluorescence) [1, 5]	fluorescence of tail vein blood over time (in vivo retention) ([1]; after i.v. administration, Cy5.5-labeled)	cancer growth [2]	viability of HCT116 p53+/+ cells (cancer cell apoptotic effect) [3]	PPI inhibition action speed [4]
rapidly removed over time	no significant accumulation	sulfo-cyanine 5.5 [Cy5.5]	failed to be specifically localized to the cancer area	significant accumulation neither in major organ tissues nor cancer tissues	completely eliminated within a short time	–	–	–
–	–	COc1cc(C(=O)O)ccc1NC(=O)[C@@H]1N[C@@H](CC(C)(C)C)[C@](C#N)(c2ccc(Cl)cc2F)[C@H]1c1cccc(Cl)c1F [idasanutlin]	–	–	–	significantly inhibited	higher anticancer effect than that of the SdPN (6:4) of Example 8	three

From US20250177479A1, “DEPSIPEPTIDE-BASED AMPHIPHILIC BULIDING BLOCK TO INHIBIT PROTEIN-PROTEIN INTERACTIONS, NANOSTRUCTURE COMPRISED THEREOF AND USES THEREOF” (INDUSTRY-ACADEMIC COOPERATION FOUNDATION, YONSEI UNIVERSITY, priority 2023, published 2025)
